Data from PubChem BioAssay (NCI).
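Cells were grown in 96-well plates and exposed to each compound for 48 hours at five concentrations; endpoints were interpolated linearly between bracketing concentrations, or set to the highest concentration if not reached. TGI denotes the concentration required for complete inhibition of growth.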

Assays:
Test in all cases: inhibition of tumour cell growth, NCI panel, 48 h
[1] = system: 786-0 renal
[2] = system: A498 renal
[3] = system: A549 NSCLC
[4] = system: ACHN renal
[5] = system: CAKI-1 renal
[6] = system: CCRF-CEM leukemia
[7] = system: COLO 205 colon
[8] = system: DLD-1 colon
[9] = system: DMS 114 small cell lung
[10] = system: DMS 273 small cell lung
[11] = system: EKVX NSCLC
[12] = system: HCC-2998 colon
[13] = system: HCT-116 colon
[14] = system: HCT-15 colon
[15] = system: HL-60(TB) leukemia
[16] = system: HOP-18 NSCLC
[17] = system: HOP-62 NSCLC
[18] = system: HOP-92 NSCLC
[19] = system: HT29 colon
[20] = system: IGROV1 ovarian
[21] = system: K-562 leukemia
[22] = system: KM12 colon
[23] = system: KM20L2 colon
[24] = system: LXFL 529 NSCLC
[25] = system: M14 melanoma
[26] = system: M19-MEL melanoma
[27] = system: MALME-3M melanoma
[28] = system: MOLT-4 leukemia
[29] = system: NCI-H226 lung
[30] = system: NCI-H23 lung
[31] = system: NCI-H460 lung
[32] = system: NCI-H522 lung
[33] = system: OVCAR-3 ovarian
[34] = system: OVCAR-4 ovarian
[35] = system: OVCAR-5 ovarian
[36] = system: OVCAR-8 ovarian
[37] = system: RPMI-8226 leukemia
[38] = system: RXF 393 renal
[39] = system: RXF-631 renal
[40] = system: SF-268 CNS
[41] = system: SF-295 CNS
[42] = system: SF-539 CNS
[43] = system: SK-MEL-2 melanoma
[44] = system: SK-MEL-28 melanoma
[45] = system: SK-MEL-5 melanoma
[46] = system: SK-OV-3 ovarian
[47] = system: SN12C renal
[48] = system: SNB-19 CNS
[49] = system: SNB-75 CNS
[50] = system: SNB-78 CNS
[51] = system: SR leukemia
[52] = system: SW-620 colon
[53] = system: TK-10 renal
[54] = system: U251 CNS
[55] = system: UACC-257 melanoma
[56] = system: UACC-62 melanoma
[57] = system: UO-31 renal
[58] = system: XF 498 CNS

Measured: TGI

CC(=O)CC(=O)NC=O
> 100 µM: [1] | [2] | [3] | [4] | [5] | [6] | [7] | [8] | [9] | [10] | [11] | [12] | [13] | [14] | [15] | [16] | [17] | [18] | [19] | [20] | [21] | [22] | [23] | [24] | [25] | [26] | [27] | [28] | [29] | [30] | [31] | [32] | [33] | [34] | [35] | [36] | [37] | [38] | [39] | [40] | [41] | [42] | [43] | [44] | [45] | [46] | [47] | [48] | [49] | [50] | [51] | [52] | [53] | [54] | [55] | [56] | [57] | [58]

N#CC(/C(=N/NC(N)=S)C(=O)Nc1cccc(Cl)c1)c1ccccc1 (centres undefined)
> 100 µM: [1] | [2] | [3] | [4] | [5] | [6] | [7] | [8] | [9] | [10] | [11] | [12] | [13] | [14] | [15] | [16] | [17] | [18] | [19] | [20] | [21] | [22] | [23] | [24] | [25] | [26] | [27] | [28] | [29] | [30] | [31] | [32] | [33] | [34] | [35] | [36] | [37] | [39] | [40] | [41] | [42] | [43] | [44] | [45] | [46] | [47] | [48] | [49] | [51] | [52] | [53] | [54] | [55] | [56] | [57] | [58]
